According to the supplement of paper PMC12463676, “Small-molecule dissolution of stress granules by redox modulation benefits ALS models” (Nature Chemical Biology, 2025):

compound: NC(=O)CCCCC1CCSS1 [lipoamide]; experiment: thermal stability z-score vs DMSO; higher = more thermally stabilized by treatment; details: HeLa; lipoamide concentration 100 µM; arsenate co-treatment: 1 mM arsenate 1 h
Method: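 Cellular thermal proteome profiling in HeLa cells. Cells were treated with 100 µM lipoamide for 1 h, with or without 1 mM arsenate for a further 1 h, then heated to ten temperatures (37-66.3 °C), and soluble protein was quantified by TMT mass spectrometry relative to 0.1% DMSO controls. The thermal stability score (sum of log2 fold changes minus the abundance score) was transformed to a z-score; mean of n = 3 experiments.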
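Note: each temperature applied for 3 min, abundance score taken as mean log2 fold change at the two lowest temperatures, z-score obtained by mean subtraction and division by SD.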

UniProt O15230, sequence (O15230 whole entry): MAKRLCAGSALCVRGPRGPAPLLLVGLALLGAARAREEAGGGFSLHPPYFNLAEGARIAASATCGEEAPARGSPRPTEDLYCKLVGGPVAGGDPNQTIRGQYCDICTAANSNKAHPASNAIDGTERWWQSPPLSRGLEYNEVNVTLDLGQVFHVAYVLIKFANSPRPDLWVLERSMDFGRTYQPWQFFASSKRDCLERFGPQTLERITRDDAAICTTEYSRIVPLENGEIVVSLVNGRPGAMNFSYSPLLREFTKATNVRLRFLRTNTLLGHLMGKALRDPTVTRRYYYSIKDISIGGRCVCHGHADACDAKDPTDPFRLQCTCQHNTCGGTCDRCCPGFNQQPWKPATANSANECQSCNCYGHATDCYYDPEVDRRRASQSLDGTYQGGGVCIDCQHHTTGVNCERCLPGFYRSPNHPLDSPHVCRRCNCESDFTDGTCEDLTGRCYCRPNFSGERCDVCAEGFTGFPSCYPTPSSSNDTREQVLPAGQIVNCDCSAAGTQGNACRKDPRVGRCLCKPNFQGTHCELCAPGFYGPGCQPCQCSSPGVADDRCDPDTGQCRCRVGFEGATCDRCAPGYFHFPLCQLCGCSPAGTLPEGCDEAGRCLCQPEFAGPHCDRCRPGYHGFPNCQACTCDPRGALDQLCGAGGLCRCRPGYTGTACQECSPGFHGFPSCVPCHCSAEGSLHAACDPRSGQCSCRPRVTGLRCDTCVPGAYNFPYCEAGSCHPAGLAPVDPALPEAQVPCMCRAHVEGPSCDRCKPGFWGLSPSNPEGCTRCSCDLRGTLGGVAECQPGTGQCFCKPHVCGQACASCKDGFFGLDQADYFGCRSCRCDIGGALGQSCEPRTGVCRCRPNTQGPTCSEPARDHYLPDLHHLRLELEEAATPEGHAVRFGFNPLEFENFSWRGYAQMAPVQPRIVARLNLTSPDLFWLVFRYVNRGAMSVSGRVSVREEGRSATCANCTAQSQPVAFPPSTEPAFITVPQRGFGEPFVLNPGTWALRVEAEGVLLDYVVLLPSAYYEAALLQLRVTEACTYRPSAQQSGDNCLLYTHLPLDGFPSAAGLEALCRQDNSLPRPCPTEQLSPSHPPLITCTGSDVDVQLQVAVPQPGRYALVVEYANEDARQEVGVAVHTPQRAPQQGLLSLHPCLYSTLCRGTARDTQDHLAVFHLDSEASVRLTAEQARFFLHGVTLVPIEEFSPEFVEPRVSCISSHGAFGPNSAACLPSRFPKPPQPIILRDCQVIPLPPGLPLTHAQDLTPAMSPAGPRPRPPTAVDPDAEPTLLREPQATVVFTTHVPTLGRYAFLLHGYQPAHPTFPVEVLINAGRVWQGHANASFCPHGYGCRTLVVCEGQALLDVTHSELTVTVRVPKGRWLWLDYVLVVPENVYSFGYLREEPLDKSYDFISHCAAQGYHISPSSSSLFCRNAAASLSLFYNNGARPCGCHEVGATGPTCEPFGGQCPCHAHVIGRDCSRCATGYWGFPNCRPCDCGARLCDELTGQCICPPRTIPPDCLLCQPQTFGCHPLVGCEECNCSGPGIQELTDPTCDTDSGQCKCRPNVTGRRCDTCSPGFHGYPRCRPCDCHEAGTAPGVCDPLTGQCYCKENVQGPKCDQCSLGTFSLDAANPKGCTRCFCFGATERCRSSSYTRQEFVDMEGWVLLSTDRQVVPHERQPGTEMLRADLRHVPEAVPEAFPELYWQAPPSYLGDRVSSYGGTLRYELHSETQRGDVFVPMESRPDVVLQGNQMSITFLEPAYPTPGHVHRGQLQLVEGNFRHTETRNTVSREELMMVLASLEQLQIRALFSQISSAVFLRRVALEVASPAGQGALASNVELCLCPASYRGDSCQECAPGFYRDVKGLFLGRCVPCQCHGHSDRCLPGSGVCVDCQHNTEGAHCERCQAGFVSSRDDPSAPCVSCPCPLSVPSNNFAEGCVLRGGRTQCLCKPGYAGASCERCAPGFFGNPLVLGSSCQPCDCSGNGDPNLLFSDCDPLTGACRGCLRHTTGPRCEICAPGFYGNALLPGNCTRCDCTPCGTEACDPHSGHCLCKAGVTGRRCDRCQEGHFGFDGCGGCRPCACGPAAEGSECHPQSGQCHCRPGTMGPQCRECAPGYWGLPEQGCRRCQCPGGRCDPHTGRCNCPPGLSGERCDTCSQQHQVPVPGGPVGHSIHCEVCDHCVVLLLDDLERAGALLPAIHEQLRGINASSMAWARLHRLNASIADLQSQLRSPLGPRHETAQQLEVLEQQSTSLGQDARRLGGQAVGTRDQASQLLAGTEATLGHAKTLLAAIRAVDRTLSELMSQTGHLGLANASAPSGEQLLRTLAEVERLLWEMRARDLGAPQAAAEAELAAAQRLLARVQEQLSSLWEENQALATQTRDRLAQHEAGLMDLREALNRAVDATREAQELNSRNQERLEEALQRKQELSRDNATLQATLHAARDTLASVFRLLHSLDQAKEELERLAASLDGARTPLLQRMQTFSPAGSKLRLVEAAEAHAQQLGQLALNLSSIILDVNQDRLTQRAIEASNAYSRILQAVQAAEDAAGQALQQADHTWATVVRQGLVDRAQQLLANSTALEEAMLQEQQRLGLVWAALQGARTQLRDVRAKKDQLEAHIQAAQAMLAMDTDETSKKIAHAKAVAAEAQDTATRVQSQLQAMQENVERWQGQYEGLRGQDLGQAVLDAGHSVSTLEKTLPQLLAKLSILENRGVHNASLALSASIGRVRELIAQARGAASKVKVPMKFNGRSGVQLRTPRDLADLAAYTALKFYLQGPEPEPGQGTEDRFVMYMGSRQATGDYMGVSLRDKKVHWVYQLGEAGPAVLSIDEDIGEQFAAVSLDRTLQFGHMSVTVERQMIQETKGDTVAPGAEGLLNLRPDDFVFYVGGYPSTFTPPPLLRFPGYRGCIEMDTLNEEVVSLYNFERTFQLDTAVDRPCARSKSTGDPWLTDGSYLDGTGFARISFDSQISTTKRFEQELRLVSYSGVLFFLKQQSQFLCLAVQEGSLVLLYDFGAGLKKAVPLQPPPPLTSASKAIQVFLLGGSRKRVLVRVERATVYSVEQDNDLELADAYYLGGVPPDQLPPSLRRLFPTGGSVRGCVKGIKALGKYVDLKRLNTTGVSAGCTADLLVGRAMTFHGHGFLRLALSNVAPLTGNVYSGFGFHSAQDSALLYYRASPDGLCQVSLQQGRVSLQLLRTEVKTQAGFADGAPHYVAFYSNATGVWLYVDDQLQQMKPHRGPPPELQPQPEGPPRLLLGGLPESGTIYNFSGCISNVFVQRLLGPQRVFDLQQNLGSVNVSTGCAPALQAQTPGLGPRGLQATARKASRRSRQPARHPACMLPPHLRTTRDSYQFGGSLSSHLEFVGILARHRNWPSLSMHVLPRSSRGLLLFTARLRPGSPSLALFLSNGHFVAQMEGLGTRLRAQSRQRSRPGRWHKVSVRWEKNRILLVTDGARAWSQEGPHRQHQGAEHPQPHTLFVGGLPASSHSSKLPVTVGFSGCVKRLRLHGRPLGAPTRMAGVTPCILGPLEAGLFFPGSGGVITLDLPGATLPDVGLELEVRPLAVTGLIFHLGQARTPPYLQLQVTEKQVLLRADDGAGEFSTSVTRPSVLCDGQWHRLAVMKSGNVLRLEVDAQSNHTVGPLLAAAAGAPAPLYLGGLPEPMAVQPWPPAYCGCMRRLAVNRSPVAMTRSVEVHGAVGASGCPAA
UniProt Q9UHN1, sequence (Q9UHN1 whole entry): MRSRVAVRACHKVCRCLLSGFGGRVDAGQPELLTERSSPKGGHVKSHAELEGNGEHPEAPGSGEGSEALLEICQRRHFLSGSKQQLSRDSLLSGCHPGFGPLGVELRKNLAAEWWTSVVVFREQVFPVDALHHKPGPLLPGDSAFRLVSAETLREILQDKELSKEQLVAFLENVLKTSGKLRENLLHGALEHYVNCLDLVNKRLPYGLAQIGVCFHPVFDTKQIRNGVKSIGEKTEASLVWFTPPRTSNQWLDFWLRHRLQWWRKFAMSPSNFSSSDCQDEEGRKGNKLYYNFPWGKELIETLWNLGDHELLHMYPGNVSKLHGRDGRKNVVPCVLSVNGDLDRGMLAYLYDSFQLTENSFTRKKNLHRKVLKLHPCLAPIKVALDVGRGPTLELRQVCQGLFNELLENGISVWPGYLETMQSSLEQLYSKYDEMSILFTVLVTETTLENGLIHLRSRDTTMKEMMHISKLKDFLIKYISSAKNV
UniProt Q9NYP9, sequence (Q9NYP9 whole entry): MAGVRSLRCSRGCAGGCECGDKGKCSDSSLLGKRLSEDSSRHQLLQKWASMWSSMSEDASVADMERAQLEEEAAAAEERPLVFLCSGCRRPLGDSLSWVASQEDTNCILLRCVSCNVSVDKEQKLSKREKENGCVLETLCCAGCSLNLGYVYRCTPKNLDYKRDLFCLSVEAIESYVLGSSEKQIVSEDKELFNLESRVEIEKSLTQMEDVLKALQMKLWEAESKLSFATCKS
UniProt Q13952, sequence (Q13952 whole entry): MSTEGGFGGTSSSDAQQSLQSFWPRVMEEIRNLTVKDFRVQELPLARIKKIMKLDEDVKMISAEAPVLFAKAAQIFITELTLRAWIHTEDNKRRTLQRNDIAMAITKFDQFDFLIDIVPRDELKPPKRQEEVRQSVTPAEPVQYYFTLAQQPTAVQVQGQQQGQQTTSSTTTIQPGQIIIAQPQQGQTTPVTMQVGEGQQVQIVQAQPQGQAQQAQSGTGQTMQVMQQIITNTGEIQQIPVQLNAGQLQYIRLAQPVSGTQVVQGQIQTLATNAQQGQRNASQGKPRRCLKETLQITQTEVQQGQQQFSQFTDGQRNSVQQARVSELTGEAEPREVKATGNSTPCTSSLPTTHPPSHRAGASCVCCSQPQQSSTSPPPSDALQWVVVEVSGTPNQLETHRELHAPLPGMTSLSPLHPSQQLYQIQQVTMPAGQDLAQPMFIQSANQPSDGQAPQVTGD
UniProt Q13795, sequence (Q13795 whole entry): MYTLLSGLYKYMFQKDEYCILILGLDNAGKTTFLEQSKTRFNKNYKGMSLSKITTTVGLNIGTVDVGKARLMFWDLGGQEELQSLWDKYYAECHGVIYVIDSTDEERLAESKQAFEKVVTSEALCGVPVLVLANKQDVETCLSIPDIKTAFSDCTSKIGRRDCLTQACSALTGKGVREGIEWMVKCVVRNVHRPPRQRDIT

Target | thermal stability z-score
TRAPPC9 (UniProt Q96Q05) | 0.0964
POLG2 (UniProt Q9UHN1) | 0.00241
ADRM1 (UniProt Q16186) | 1.21
NDUFA5 (UniProt Q16718) | -0.0074
TIGAR (UniProt Q9NQ88) | -1.91
RSRC1 (UniProt Q96IZ7) | 1.06
CETN2 (UniProt P41208) | 0.767
TOP3A (UniProt Q13472) | -0.152
MCL1 (UniProt Q07820) | 0.483
POLR3D (UniProt P05423) | 0.483
DCBLD2 (UniProt Q96PD2) | 0.0564
RDH10 (UniProt Q8IZV5) | 0.347
ITPRIPL2 (UniProt Q3MIP1) | -0.176
LAMA5 (UniProt O15230) | -1.26
KDM3A (UniProt Q9Y4C1) | 0.00835
GMEB1 (UniProt Q9Y692) | -0.239
NFYC (UniProt Q13952) | 0.024
SMC3 (UniProt Q9UQE7) | 0.0797
TBL3 (UniProt Q12788) | 0.0946
ZNF326 (UniProt Q5BKZ1) | -0.0719
POLR3K (UniProt Q9Y2Y1) | 0.542
FBXL16 (UniProt Q8N461) | -0.137
RPLP1 (UniProt P05386) | 1.44
MIS18A (UniProt Q9NYP9) | -0.127
PTBP3 (UniProt O95758) | -0.713
CUL7 (UniProt Q14999) | 0.0636
S100A16 (UniProt Q96FQ6) | 1.33
RRM1 (UniProt P23921) | 0.219

Target | thermal stability z-score
TSPYL1 (UniProt Q9H0U9) | -0.00828
ZMYM3 (UniProt Q14202) | 0.69
RBMS2 (UniProt Q15434) | 0.0996
NEURL4 (UniProt Q96JN8) | -0.125
WDR36 (UniProt Q8NI36) | 0.0966
ENPEP (UniProt Q07075) | 0.281
CDK5 (UniProt Q00535) | -0.0682
ARFRP1 (UniProt Q13795) | 0.241
CPT2 (UniProt P23786) | -0.296
C12ORF43 (UniProt Q96C57) | 0.941
PARP4 (UniProt Q9UKK3) | 0.157
MALT1 (UniProt Q9UDY8) | -0.539
REEP6 (UniProt Q96HR9) | 0.703
PPP1CB (UniProt P62140) | 0.928
DNAH1 (UniProt Q9P2D7) | -0.00768
CSPG4 (UniProt Q6UVK1) | -0.203
PTGFRN (UniProt Q9P2B2) | 0.216
EMC1 (UniProt Q8N766) | -2.01
BBX (UniProt Q8WY36) | -0.177
TMEM38B (UniProt Q9NVV0) | 0.603
FAM96A (UniProt Q9H5X1) | -0.0873
CPD (UniProt O75976) | -0.796
RPUSD3 (UniProt Q6P087) | 0.12
NUDT5 (UniProt Q9UKK9) | 0.871
RRN3 (UniProt Q9NYV6) | -0.321
ARHGEF7 (UniProt Q14155) | -0.856
PLPP3 (UniProt O14495) | 0.394

same assay, conditions: HeLa; lipoamide concentration 100 µM; arsenate co-treatment: none

Target | thermal stability z-score
TRAPPC9 (UniProt Q96Q05) | -0.258
POLG2 (UniProt Q9UHN1) | -0.266
ADRM1 (UniProt Q16186) | 0.976
NDUFA5 (UniProt Q16718) | -0.146
TIGAR (UniProt Q9NQ88) | 0.677
RSRC1 (UniProt Q96IZ7) | 0.987
CETN2 (UniProt P41208) | 0.569
TOP3A (UniProt Q13472) | 0.21
MCL1 (UniProt Q07820) | 0.838
POLR3D (UniProt P05423) | -0.501
DCBLD2 (UniProt Q96PD2) | 0.109
RDH10 (UniProt Q8IZV5) | 0.244
ITPRIPL2 (UniProt Q3MIP1) | -0.34
LAMA5 (UniProt O15230) | -0.93
KDM3A (UniProt Q9Y4C1) | -0.0932
GMEB1 (UniProt Q9Y692) | -0.0658
NFYC (UniProt Q13952) | 0.385
SMC3 (UniProt Q9UQE7) | 0.288
TBL3 (UniProt Q12788) | -0.105
ZNF326 (UniProt Q5BKZ1) | 0.0989
POLR3K (UniProt Q9Y2Y1) | 0.567
FBXL16 (UniProt Q8N461) | 0.0698
RPLP1 (UniProt P05386) | 0.753
MIS18A (UniProt Q9NYP9) | 0.246
PTBP3 (UniProt O95758) | 0.0298
CUL7 (UniProt Q14999) | 0.0136
S100A16 (UniProt Q96FQ6) | 1.29
RRM1 (UniProt P23921) | 0.204

Target | thermal stability z-score
TSPYL1 (UniProt Q9H0U9) | -0.153
ZMYM3 (UniProt Q14202) | 0.308
RBMS2 (UniProt Q15434) | 0.158
NEURL4 (UniProt Q96JN8) | 0.0814
WDR36 (UniProt Q8NI36) | 0.698
ENPEP (UniProt Q07075) | 0.407
CDK5 (UniProt Q00535) | 0.212
ARFRP1 (UniProt Q13795) | 0.279
CPT2 (UniProt P23786) | 0.0116
C12ORF43 (UniProt Q96C57) | -0.0235
PARP4 (UniProt Q9UKK3) | -0.044
MALT1 (UniProt Q9UDY8) | 0.249
REEP6 (UniProt Q96HR9) | 0.825
PPP1CB (UniProt P62140) | -0.00317
DNAH1 (UniProt Q9P2D7) | 0.171
CSPG4 (UniProt Q6UVK1) | -0.907
PTGFRN (UniProt Q9P2B2) | 0.0155
EMC1 (UniProt Q8N766) | -1.43
BBX (UniProt Q8WY36) | -0.12
TMEM38B (UniProt Q9NVV0) | -0.085
FAM96A (UniProt Q9H5X1) | -0.652
CPD (UniProt O75976) | -0.794
RPUSD3 (UniProt Q6P087) | 0.0857
NUDT5 (UniProt Q9UKK9) | 0.881
RRN3 (UniProt Q9NYV6) | -0.104
ARHGEF7 (UniProt Q14155) | -0.54
PLPP3 (UniProt O14495) | 0.448

compound: O=[As]([O-])(O)O.[K+] [potassium arsenate]; experiment: as above; details: HeLa; arsenate concentration 1 mM
Method: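 Cellular thermal proteome profiling in HeLa cells treated with 1 mM arsenate for 1 h (DMSO pretreatment), heated to ten temperatures (37-66.3 °C). Soluble protein was quantified by TMT mass spectrometry relative to DMSO controls; the thermal stability score was transformed to a z-score; mean of n = 3 experiments.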

Target | thermal stability z-score
TRAPPC9 (UniProt Q96Q05) | 0.167
POLG2 (UniProt Q9UHN1) | -0.833
ADRM1 (UniProt Q16186) | 0.823
NDUFA5 (UniProt Q16718) | 0.101
TIGAR (UniProt Q9NQ88) | 0.655
RSRC1 (UniProt Q96IZ7) | 1.14
CETN2 (UniProt P41208) | 0.798
TOP3A (UniProt Q13472) | -0.457
MCL1 (UniProt Q07820) | 1.27
POLR3D (UniProt P05423) | -1.56
DCBLD2 (UniProt Q96PD2) | -0.505
RDH10 (UniProt Q8IZV5) | 0.115
ITPRIPL2 (UniProt Q3MIP1) | -0.0231
LAMA5 (UniProt O15230) | 0.045
KDM3A (UniProt Q9Y4C1) | -0.0481
GMEB1 (UniProt Q9Y692) | 0.19
NFYC (UniProt Q13952) | -0.0961
SMC3 (UniProt Q9UQE7) | -0.181
TBL3 (UniProt Q12788) | -0.338
ZNF326 (UniProt Q5BKZ1) | 0.0996
POLR3K (UniProt Q9Y2Y1) | -3.08
FBXL16 (UniProt Q8N461) | -0.0763
RPLP1 (UniProt P05386) | 0.00244
MIS18A (UniProt Q9NYP9) | 0.683
PTBP3 (UniProt O95758) | -0.772
CUL7 (UniProt Q14999) | -0.113
S100A16 (UniProt Q96FQ6) | 0.517
RRM1 (UniProt P23921) | 0.11

Target | thermal stability z-score
TSPYL1 (UniProt Q9H0U9) | 0.0344
ZMYM3 (UniProt Q14202) | -1.2
RBMS2 (UniProt Q15434) | -0.0696
NEURL4 (UniProt Q96JN8) | 0.00875
WDR36 (UniProt Q8NI36) | -0.285
ENPEP (UniProt Q07075) | -0.0304
CDK5 (UniProt Q00535) | 0.0671
ARFRP1 (UniProt Q13795) | -0.148
CPT2 (UniProt P23786) | 0.228
C12ORF43 (UniProt Q96C57) | -1.08
PARP4 (UniProt Q9UKK3) | 0.742
MALT1 (UniProt Q9UDY8) | 0.37
REEP6 (UniProt Q96HR9) | 0.0059
PPP1CB (UniProt P62140) | 0.32
DNAH1 (UniProt Q9P2D7) | 0.0212
CSPG4 (UniProt Q6UVK1) | -0.945
PTGFRN (UniProt Q9P2B2) | 0.0412
EMC1 (UniProt Q8N766) | 0.695
BBX (UniProt Q8WY36) | -0.402
TMEM38B (UniProt Q9NVV0) | 0.654
FAM96A (UniProt Q9H5X1) | -1.34
CPD (UniProt O75976) | 0.546
RPUSD3 (UniProt Q6P087) | 0.085
NUDT5 (UniProt Q9UKK9) | 0.191
RRN3 (UniProt Q9NYV6) | -2.42
ARHGEF7 (UniProt Q14155) | -0.0377
PLPP3 (UniProt O14495) | 0.384
